Results on two compounds are retold here after patent publication US20190224153A1, “L-DOPA DERIVATIVES FOR THE TREATMENT OF NEUROLOGICAL DISEASES” (BERLIREM GMBH, priority 2016, published 2019).

A short description of data set [1]: Stability against hydrolytic cleavage, aprotic versus aqueous solutions. Type of data set: physicochemical. The conditions noted are these: aprotic solutions compared to aqueous solutions. The text has this: It is an additional aspect of the invention that the high solubility of the L-DOPA ester in aprotic solvents suitable for parenteral application (such as e.g. N-Methylpyrrolidone, Polysorbat 80, Dimethylacetamide, Solutol HS 15, Glycerol, Ethanol) also relates to L-DOPA esters known before the application date of WO 2016/155888 A1, in particular L-DOPA ethyl ester described in WO 2012/079072 A2 (Heller et al.). […] Moreover the stability is much higher even at pH-values of 5-8. L-DOPA ethyl ester solutions in aprotic solvents suitable for parenteral application could therefore solve tolerability problems known from earlier attempts to use L-DOPA ethyl ester in the treatment of neurological diseases.

Data set [2] is described as follows: Enzymatic cleavage of L-DOPA esters in human plasma (ex vivo). The conditions noted are these: pH 7.4, 37° C., after 2 hours, n=3.
Protocol: After 2, 15, 30, 45, 60 and 120 min 200 μL sample were taken, immediately deproteinized (200 μL 0.4N PCA), precipitated (200 μL 0.1% formic acid) and centrifuged. […] For purpose of comparison L-Dopa Ethyl Ester was investigated under same conditions.

In the case of `CCOC(=O)[C@@H](N)Cc1ccc(O)c(O)c1` [L-DOPA Ethyl Ester], the “stability against hydrolytic cleavage” value in data set [1] is listed as “higher stability against hydrolytic cleavage compared to aqueous solutions”. In addition, the “converted to L-Dopa” value in data set [2] was 50%.

Turning to `N[C@@H](Cc1ccc(O)c(O)c1)C(=O)OCC(O)CO` (stereo partly drawn) [L-DOPA Glycerin ester], the “converted to L-Dopa” value in data set [2] worked out at 60%.
